Values after ≈ are worked out from the molar mass of the structure shown.
How the values were obtained:
E. coli ATCC 25922 = system: E. coli ATCC 25922; set-up: method as in PMID 32962088; details: cited from earlier work
E. coli C175-94 = experiment: Ascending urinary tract infection model in OF-1 mice; assay type: in vivo; details: for bacterial burden in urine: CHD/CDCHD 12 mg/kg SC BID on day 1 and 2 post-inoculation; for bacterial burden in urine / bacterial burden in kidneys / bacterial burden in the bladder: day 3, vs vehicle; for animals with sterile kidneys / bacterial burden in kidneys / bacterial burden in the bladder: CHD/CDCHD 12 mg/kg SC BID, gentamicin 100 mg/kg SC BID; for animals with sterile kidneys: control animals 23.8%
Method: The model was conducted as described previously ([27], [60]). In brief, n = 21 animals were used per group in the main study, and n = 3 animals per group in satellite groups for histopathological analysis. Three days before the start of the study and during the study, mice had free access to 5% glucose as drinking water. Fresh overnight colonies of E. coli from a 5% horse blood agar plate were suspended in PBS pH 7.4 to approximately 10^9 cfu/mL. Approximately 1 hour before inoculation, mice were treated orally with […] Nurofen (20 mg ibuprofen/mL corresponding to approximately 30 mg/kg) as a pain relief. Urine was removed from the bladder by gently pressing the abdomen and mice were anaesthetized with 0.15 mL Zoletil mix SC. Thereafter, the mice were inoculated. A syringe with a catheter, containing the bacterial suspension was inserted via the urethra into the bladder and 50 µL of the inoculum was slowly injected into the bladder. Hereafter, the mouse was placed in the cage and kept in a warming cabinet until fully awake (approximately 4 hours). The mice were treated with CHD (12 mg/kg SC BID), CDCHD (12 mg/kg SC BID), gentamicin (100 mg/kg SC BID), or vehicle BID (2nd dose was administered approximately 6 hours after the 1st dose on each day) on day 1, that is, first dose around 24 hours post-infection, and day 2 post-inoculation. The mice were observed during the study and scored based on their behavior and clinical signs. Clinical scoring comprised assessment of piloerection in the skin, activity (movement, curiosity), and appearance of eyes. The scoring range comprised 0–4. In our model, a maximum score of 1; thus, only mild discomfort was observed. On day 3 post-inoculation and after sampling urine, mice were euthanized by cervical dislocation, and bladder and kidneys were removed from 21 mice in each treatment group aseptically for cfu determination. The bladder and kidneys were stored at −80°C and later homogenized in 0.5 or 1 mL saline, respectively. Colony counts of urine were determined immediately. From the three additional mice in each treatment group (satellite groups), urine and plasma were sampled and frozen at −80°C, and bladders, kidneys, and liver were collected in 4% buffered formalin. Cfu was determined in urine samples within 2–3 hours after sampling. Frozen organs were thawed and homogenized with steel beads using a tissue lyser. All samples, urine, kidney, and bladder, were 10-fold diluted in saline and 20 µL spots were applied on blue agar plates in duplicates. In addition, undiluted samples of urine (2–100 μL depending on the available amount of urine) were spread on a separate agar plate to determine the colony counts at the lowest possible detection level. All agar plates were incubated for 18–22 hours at 35°C in ambient air.
For the neutropenic thigh infection model with E. coli ATCC 25922, the thighs were regarded as two independent infection sites throughout the experiment. For statistical analysis, individual thighs (left and right) were treated as separate samples although these were not completely independent values. For the neutropenic thigh infection model with K. pneumoniae ATCC 43816, the individual thighs (left and right) were treated as one sample. For the efficacy models, the non-parametric Kruskal-Wallis test was used with GraphPad Prism 9.4.1. For the ascending urinary tract infection model, an ordinary one-way ANOVA with Dunnett’s multiple comparison test was used with GraphPad Prism 9.4.1.

ESKAPE pathogens = experiment: MIC determination against a variety of ESKAPE pathogens; assay type: cell-based; details: against A. baumannii, P. aeruginosa, and E. aerogenes
Method: (§1) The assay was conducted as described previously ([54]) with the following modifications. The MIC was tested against the K. pneumoniae strain ATCC 43816 in an MHB (not cation-adjusted) medium. CHD and CDCHD were tested in concentrations ranging from 0.078 to 10 µg/mL. Moreover, the MIC was determined for the following strains: K. pneumoniae DSM-30104, E. faecium DSM-20477, S. aureus DSM-346, P. aeruginosa DSM-11128, A. baumannii DSM-30008, E. aerogenes DSM-30053, E. coli ATCC 25922, and E. coli C175-94. All strains were grown in MHB medium, except for E. faecium, which was grown in TSB. CHD, epi-CDH, and CDCHD were tested in concentrations ranging from 0.125 to 64 µg/mL as described previously ([19]).

K. pneumoniae ATCC 43816 = experiment: MIC determination; assay type: cell-based; details: MHB (not cation-adjusted) medium
Method: as §1

| SMILES | MIC (E. coli ATCC 25922) | bacterial burden in urine (E. coli C175-94) | animals with sterile kidneys (E. coli C175-94) | bacterial burden in kidneys (E. coli C175-94) | bacterial burden in the bladder (E. coli C175-94) | activity (in words) (ESKAPE pathogens) | MIC (K. pneumoniae ATCC 43816) |
| --- | --- | --- | --- | --- | --- | --- | --- |
| Cc1ccc2c(C)c3c(c(O)c2c1O)C(=O)C1(O)C(=O)C(C(N)=O)=C(O)C(N)C1C3 (stereo not drawn) [CDCHD, 2-carboxamido-2-deacetyl-chelocardin] | 2 µg/mL (≈ 4.85 µM) | reduced bacterial burden in urine significantly | 61.9% | strong and significant reduction | significant reduction compared to vehicle control |  |  |
| CC(=O)C1=C(O)[C@H](N)[C@@H]2Cc3c(c(O)c4c(O)c(C)ccc4c3C)C(=O)[C@]2(O)C1=O [CHD, chelocardin] | 2 µg/mL (≈ 4.86 µM) | reduced bacterial burden in urine significantly | 38.1% | slight, non-significant effect | significant reduction compared to vehicle control | inactive | 5 µg/mL (≈ 12.2 µM) |

Reference: paper PMC10783034, “Pharmacokinetic and pharmacodynamic evaluation of the atypical tetracyclines chelocardin and amidochelocardin in murine infection models” (Microbiology Spectrum, 2023)
